“Also recorded” adds a separate entry of the source. Like-named read-outs stand apart in the source and are kept apart here.
Experiments:
[1] = Phase 1 randomized open-label crossover food-effect pharmacokinetic study, plasma vonoprazan by LC-MS/MS; assay type: in vivo, healthy Caucasian male and female subjects (human); settings: for AUC / Cmax / tmax: po, 20 mg; for tmax: read-out: tmax, median (min, max)
Experimental: This was a randomized, open‐label, 2×2 crossover, phase 1 study stratified by gender in healthy Caucasian male and female subjects. The study was conducted at a single site in Northern Ireland (MDS Pharma Services, Belfast, Northern Ireland). The study was approved by an independent ethics committee (Edinburgh Independent Ethics Committee, Edinburgh, Scotland). Written informed consent was obtained from all subjects before study initiation.
The enrolled study population included 12 men and 14 women aged 18 to 45 years, of Caucasian ethnicity, considered eligible on the basis of study inclusion and exclusion criteria. To be eligible, subjects must have been in good health and have had clinical laboratory evaluations (including clinical chemistry, hematology, and urinalysis) within the reference range for the testing laboratory, or only minor deviations that were deemed by the investigator to be clinically nonsignificant. Additional inclusion criteria included a body mass index between 18 and 30 kg/m^2 and a willingness to provide written informed consent before any screening procedures; abstention from caffeine, alcohol, and strenuous exercise from 72 hours before dosing until the follow‐up call/visit; and use of adequate contraception from screening, throughout the study, and for 30 days following the last dose of study medication (applicable to female subjects of childbearing potential who were sexually active) or for 12 weeks after the follow‐up visit (applicable to male subjects with female partners, both of whom were required to use contraception). In addition to caffeine and alcohol, subjects who had received the following were excluded from participation: nicotine products 6 weeks before the first dose of study medication; antibiotics within 28 days prior to initial screening; prescription medication or St. John's wort, ginseng, kava, ginkgo biloba, melatonin, herbal or homeopathic preparations, or other nutriceuticals within 28 days before the first dose; over‐the‐counter medication including salicylates (except when approved on a case‐by‐case basis) or vitamin supplements within 14 days before the first dose; and grapefruit or grapefruit products, Seville oranges (sour) or products, or poppy seeds within 7 days before the first dose.
Subjects were randomized to either the fed/fasted state or fasted/fed state sequence, with randomization stratified by sex. Eligible subjects received a single 20‐mg dose of vonoprazan (given as two 10‐mg tablets) either following an overnight fast or 30 minutes after a breakfast (≈900 calories, with 62% of the calories from fat, 23% from carbohydrate, and 14% from protein).
After a 5‐day washout period, subjects received a second 20‐mg dose of vonoprazan in the alternative fed/fasted state, and the identical process was performed. During dosing in the fasted state, subjects fasted for 10 hours before receiving the study drug. During dosing in the fed state, subjects fasted for 10 hours and then consumed the breakfast, which was started 30 minutes before dosing and eaten in ≤30 minutes. Vonoprazan was taken with 240 mL of water, and subjects refrained from eating for 4 hours after dosing. Water (200 mL) was given to all subjects at 2 and 4 hours after dosing. All administrations of vonoprazan were taken under supervision.
Plasma concentrations of vonoprazan were determined using a liquid chromatography–tandem mass spectrometry assay with a validated concentration range of 0.1 to 100 ng/mL. A total of 864 samples were analyzed in 13 reported batches. The bioanalytical method utilized protein precipitation and extraction of plasma samples with acetonitrile‐formic acid (100:0.2, v/v) before analysis by liquid chromatography–tandem mass spectrometry. […]

[2] = parameters: method as in PMID 26369775; settings: single 20 mg, cited from earlier work
[3] = parameters: method as in PMID 25707624; settings: 20 mg once daily after ≥10-hour fast, cited from earlier work
[4] = parameters: method as in PMID 25707624; settings: 20 mg once daily after ≥10-hour fast, cited from earlier work; remark: listed apart in the source
[5] = cited from earlier work
gastric acid secretion = tested on: gastric acid secretion; parameters: method as in PMID 26111126; settings: single doses ≥20 mg, clinical studies; cited from earlier work
[6] = parameters: method as in PMID 17575528, PMID 21132072; settings: no enteric coating required; cited from earlier work
[7] = tested on: cytochrome P450 (CYP) 3A4; parameters: method as in PMID 26369775, PMID 29383028, PMID 27414183; settings: lesser extent by CYP2B6, CYP2C19, CYP2D6; cited from earlier work
[8] = parameters: method as in PMID 25707624, PMID 28198590, PMID 26193978, PMID 31990424; settings: 212 healthy volunteers, daily doses up to 40 mg for up to 7 days; cited from earlier work
[9] = Safety/tolerability in the food-effect study (adverse events, vital signs, ECG, laboratory tests); settings: for Incidence of AEs: single 20-mg dose, 24 subjects
Text: Safety variables included physical examination findings; vital signs; electrocardiograms; clinical laboratory evaluations including hematology, chemistry, and urinalysis; and treatment‐emergent adverse events (AEs).
The safety analysis set comprised all enrolled subjects who received at least 1 dose of vonoprazan and was used for safety and baseline demographics summaries.

[10] = 12 healthy Japanese adult men, unchanged vonoprazan
[11] = single 20-mg doses, fed and fasted

## CNCc1cc(-c2ccccc2F)n(S(=O)(=O)c2cccnc2)c1.O=C(O)/C=C/C(=O)O [vonoprazan, 1‐[5‐(2‐fluorophenyl)‐1‐(pyridin‐3‐ylsulfonyl)‐1H‐pyrrol‐3‐yl]‐N‐methylmethanamine monofumarate]
[1]; both sexes, human, plasma, single 20-mg oral dose, fasted, N = 24, read-out: AUC0‐24, least-squares mean
  AUC: 154 ng·h/mL
[1]; both sexes, human, plasma, single 20-mg oral dose, fasted, N = 24, read-out: AUC0‐∞, least-squares mean
  AUC: 171 ng·h/mL
[1]; both sexes, human, plasma, single 20-mg oral dose, fasted, N = 24, read-out: Cmax, least-squares mean
  Cmax: 17.3 ng/mL
[1]; both sexes, human, plasma, single 20-mg oral dose, fasted, n = 24, plasma, read-out: AUC0‐24, mean (SD)
  AUC: 161 ng·h/mL
[1]; both sexes, human, plasma, single 20-mg oral dose, fasted, n = 24, plasma, read-out: AUC0‐∞, mean (SD)
  AUC: 179 ng·h/mL
[1]; both sexes, human, plasma, single 20-mg oral dose, fasted, n = 24, plasma, read-out: Cmax, mean (SD)
  Cmax: 18.2 ng/mL
[1]; both sexes, human, plasma, single 20-mg oral dose, fasted, n = 24
  tmax: 2 h
[1]; both sexes, human, plasma, single 20-mg oral dose, fed (high-fat breakfast), n = 24, plasma, read-out: Cmax, mean (SD)
  Cmax: 18.9 ng/mL
[1]; both sexes, human, plasma, single 20-mg oral dose, fed, N = 24, read-out: AUC0‐24, least-squares mean
  AUC: 174 ng·h/mL
[1]; both sexes, human, plasma, single 20-mg oral dose, fed, N = 24, read-out: AUC0‐∞, least-squares mean
  AUC: 196 ng·h/mL
[1]; both sexes, human, plasma, single 20-mg oral dose, fed, N = 24, read-out: Cmax, least-squares mean
  Cmax: 18.2 ng/mL
[1]; both sexes, human, plasma, single 20-mg oral dose, fed, n = 24, plasma, read-out: AUC0‐24, mean (SD)
  AUC: 182 ng·h/mL
[1]; both sexes, human, plasma, single 20-mg oral dose, fed, n = 24, plasma, read-out: AUC0‐∞, mean (SD)
  AUC: 206 ng·h/mL
[1]; both sexes, human, plasma, single 20-mg oral dose, fed, n = 24
  tmax: 4 h
[1]; both sexes, human, plasma, single 20-mg oral dose, fed, n = 24, read-out: t1/2 (terminal elimination half-life), mean (SD) (converted)
  half-life: 6.9 h
[1]; single 20-mg dose, fed vs fasted, CI within 80% to 125%
  Effect of food on exposure: not meaningfully affected by food; also recorded: not materially affected by food
[1]; single 20-mg oral dose, N = 24
  AUC0‐24, fed/fasted ratio of geometric (least-squares) means: 1.13
  AUC0‐∞, fed/fasted ratio of geometric (least-squares) means: 1.15
  Cmax, fed/fasted ratio of geometric (least-squares) means: 1.05
[1]; single 20-mg oral dose, fasted, n = 24
  t1/2 (terminal elimination half-life), mean (SD): 6.9 (1.45) h
[2]; [10]
  AUC0‐48, fed/fasted ratio: 1.08
  Cmax, fed/fasted ratio: 1.09
[2]; fasted state, Japanese men
  AUC0‐∞: 225.3 ng·h/mL
  Cmax: 24.3 ng/mL
  median tmax: 1.5 h
  t1/2: 7.7 h
[2]; fed state, Japanese men
  median tmax: 3.0 h
[3]; day 1, Japanese study
  tmax: 1.5 h
[3]; day 7, Japanese study
  tmax: 1.5 h
[4]; day 1, UK study
  tmax: 1.5 h
[4]; day 7, UK study
  tmax: 1.1 h
[5]; Japanese repeated-dose study and earlier phase 1 study
  influence of CYP2C19 polymorphisms on pharmacokinetics: not influenced by CYP2C19 polymorphisms
[5]; doses from 10 to 40 mg, days 1 and 7
  accumulation in plasma after multiple doses: little to no accumulation
[5]; oral, once-daily dosing
  median time of peak plasma concentrations (tmax): ≤ 2 h
Gastric acid secretion
  Tolerability: well tolerated
  duration of action: 24 h
  onset of action: < 4 h
[6]
  acid stability: acid stable
[7]
  metabolizing enzymes: primarily metabolized by cytochrome P450 (CYP) 3A4
[8]
  safety signals: no safety signals
[9]; fasted state
  Incidence of AEs: 12.5%
[9]; fed state
  Incidence of AEs: 8.3%
[9]; single 20-mg doses given on 2 occasions, healthy subjects
  Tolerability: safe and well tolerated
[9]; [11]
  Changes in liver function tests: no obvious treatment‐emergent changes
  Changes in vital signs, 12-lead electrocardiograms, laboratory safety tests: no clinically important changes
  Serious AEs and deaths during the study: No serious AEs and no deaths
  Severity of reported AEs: mild
[9]; whole study, four subjects affected
  Number of adverse events: 6

Source: PMC9291755, “The Effect of Food on the Pharmacokinetics of the Potassium‐Competitive Acid Blocker Vonoprazan” (Clinical Pharmacology in Drug Development, 2021)
